One may read the inhibition as the relative decrease from the control value, in per cent. For orientation: CC50 means the concentration giving 50% cytotoxicity. Higher therefore signals better tolerance by the cells.

We go through ten compounds from paper PMC9927415, “Tyrosine Kinase Inhibitors Display Potent Activity against Cryptosporidium parvum” (Microbiology Spectrum, 2022).

A value given as a limit tells only on which side of the number the result lay.

Data set [1] deals with T1, TNNI3K (Homo sapiens, UniProt Q59H18).
T1 construct: purchased DiscoverX (KINOMEscan)
T1 sequence (Q59H18 1-835): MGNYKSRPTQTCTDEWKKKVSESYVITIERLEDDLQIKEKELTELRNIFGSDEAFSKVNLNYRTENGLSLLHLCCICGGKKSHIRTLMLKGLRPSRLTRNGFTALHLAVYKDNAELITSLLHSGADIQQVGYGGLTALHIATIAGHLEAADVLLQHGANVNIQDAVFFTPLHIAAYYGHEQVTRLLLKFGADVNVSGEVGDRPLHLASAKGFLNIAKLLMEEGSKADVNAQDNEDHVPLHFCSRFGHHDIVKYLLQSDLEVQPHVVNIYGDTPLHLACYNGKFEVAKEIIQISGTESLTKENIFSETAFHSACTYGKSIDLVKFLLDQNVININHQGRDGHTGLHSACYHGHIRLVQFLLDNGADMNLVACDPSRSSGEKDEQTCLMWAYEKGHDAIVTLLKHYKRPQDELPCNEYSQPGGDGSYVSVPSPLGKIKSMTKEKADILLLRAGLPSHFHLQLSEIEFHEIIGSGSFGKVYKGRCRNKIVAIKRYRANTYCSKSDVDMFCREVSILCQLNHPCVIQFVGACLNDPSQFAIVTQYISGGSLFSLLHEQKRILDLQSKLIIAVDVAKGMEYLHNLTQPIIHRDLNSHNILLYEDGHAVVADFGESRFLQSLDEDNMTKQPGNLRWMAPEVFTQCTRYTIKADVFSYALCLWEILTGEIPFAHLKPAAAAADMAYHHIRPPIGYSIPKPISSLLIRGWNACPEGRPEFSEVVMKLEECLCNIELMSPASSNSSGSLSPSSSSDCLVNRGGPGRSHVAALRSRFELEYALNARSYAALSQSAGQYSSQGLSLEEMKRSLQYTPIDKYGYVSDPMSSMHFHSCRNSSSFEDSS
The data set can be described thus: KINOMEscan competitive binding. To be noted: n=1, read-out: Percent inhibition, TNNI3K.

Data set [2] addresses T2, RPS6KA4(Kin.Dom.1) (Homo sapiens, UniProt O75676).
T2 construct: RPS6KA4(Kin.Dom.1); purchased DiscoverX (KINOMEscan)
T2 sequence (O75676 1-371 limits assumed): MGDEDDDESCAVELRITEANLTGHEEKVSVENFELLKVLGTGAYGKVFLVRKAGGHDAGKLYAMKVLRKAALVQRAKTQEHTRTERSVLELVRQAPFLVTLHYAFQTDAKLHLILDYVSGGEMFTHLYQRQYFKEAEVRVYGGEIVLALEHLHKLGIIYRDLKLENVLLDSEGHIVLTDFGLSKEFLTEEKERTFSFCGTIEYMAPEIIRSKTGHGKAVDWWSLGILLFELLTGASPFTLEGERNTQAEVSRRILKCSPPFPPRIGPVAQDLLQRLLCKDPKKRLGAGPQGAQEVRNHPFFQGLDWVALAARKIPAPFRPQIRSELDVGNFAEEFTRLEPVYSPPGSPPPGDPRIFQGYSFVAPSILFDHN
The data set can be described thus: KINOMEscan competitive binding. The settings on record: n=1, read-out: Percent inhibition, RPS6KA4(Kin.Dom.1).

Data set [3] addresses T3, RPS6KA5(Kin.Dom.1) (Homo sapiens, UniProt O75582).
T3 construct: RPS6KA5(Kin.Dom.1); purchased DiscoverX (KINOMEscan)
The data set can be described thus: KINOMEscan competitive binding. The settings on record: n=1, read-out: Percent inhibition, RPS6KA5(Kin.Dom.1).

Data set [4] in a line: Host cell cytotoxicity assay (CellTiter-Glo). The settings on record: human, HepG2 cells. As for the experimental part:
HepG2 cells were grown in Eagle’s Minimum Essential Medium (MEM) containing 10% FBS, 1% nonessential amino acids (NEAA) and 1% penicillin/streptomycin to >50% confluence prior to harvesting. Cells were suspended in media and 3000 cells per well were added onto 384-well clear bottom plates. Prior to addition of the cell suspension, the screening compounds (250 nl) were predispensed into plates using a liquid handler. Plates were incubated for 48 h at 37°C, 5% CO2. After 48 h of incubation, plates were equilibrated at room temperature for 30 min before luminescence signal was measured using CellTiter-Glo Reagent. Plates were kept at room temperature for 10 min to stabilize the signal and then read using a ViewLux luminescence reader. The HepG2 CC50 (from the host cell cytotoxicity assays) and C. parvum mean EC50 (from parasite growth inhibition assays) values were used to calculate selectivity index.
On the technique in general: Cellular ATP, detected with luciferase, serves as a proxy for viable cell number.

Data set [5] deals with T4, RPS6KA2(Kin.Dom.1) (Homo sapiens, UniProt Q15349).
T4 construct: RPS6KA2(Kin.Dom.1); purchased DiscoverX (KINOMEscan)
Put plainly: KINOMEscan competitive binding. The settings on record: n=1, read-out: Percent inhibition, RPS6KA2(Kin.Dom.1).

Data set [6] concerns the target T5, SNF1LK2 (Homo sapiens, UniProt Q9H0K1).
T5 construct: purchased DiscoverX (KINOMEscan)
Put plainly: KINOMEscan competitive binding. The settings on record: n=1, read-out: Percent inhibition, SNF1LK2.

Data set [7] addresses T6, PCTK1 (Homo sapiens, UniProt Q00536).
T6 construct: purchased DiscoverX (KINOMEscan)
Put plainly: KINOMEscan competitive binding. To be noted: n=1, read-out: Percent inhibition, PCTK1.

Data set [8] addresses T7, PAK1 (Homo sapiens, UniProt Q13153).
T7 construct: purchased DiscoverX (KINOMEscan)
Put plainly: KINOMEscan competitive binding. To be noted: n=1, read-out: Percent inhibition, PAK1.

Data set [9] deals with T8, ULK3(mouse) (Mus musculus, UniProt Q3U3Q1).
T8 construct: purchased DiscoverX (KINOMEscan)
T8 sequence (Q3U3Q1 1-472): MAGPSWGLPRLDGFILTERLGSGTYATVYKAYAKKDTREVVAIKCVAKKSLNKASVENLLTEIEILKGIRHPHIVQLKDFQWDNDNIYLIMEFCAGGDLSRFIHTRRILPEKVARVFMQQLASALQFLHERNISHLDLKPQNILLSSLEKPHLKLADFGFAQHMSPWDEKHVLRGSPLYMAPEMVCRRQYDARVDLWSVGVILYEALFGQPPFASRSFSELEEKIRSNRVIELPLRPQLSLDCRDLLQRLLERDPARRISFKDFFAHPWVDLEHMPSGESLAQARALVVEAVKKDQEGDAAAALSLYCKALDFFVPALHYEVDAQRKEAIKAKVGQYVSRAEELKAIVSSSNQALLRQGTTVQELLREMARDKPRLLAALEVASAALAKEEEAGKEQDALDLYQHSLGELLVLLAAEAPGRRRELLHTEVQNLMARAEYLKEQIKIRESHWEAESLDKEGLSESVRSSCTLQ
The data set can be described thus: KINOMEscan competitive binding. To be noted: n=1, read-out: Percent inhibition, ULK3(mouse).

T7 sequence (Q13153 whole entry): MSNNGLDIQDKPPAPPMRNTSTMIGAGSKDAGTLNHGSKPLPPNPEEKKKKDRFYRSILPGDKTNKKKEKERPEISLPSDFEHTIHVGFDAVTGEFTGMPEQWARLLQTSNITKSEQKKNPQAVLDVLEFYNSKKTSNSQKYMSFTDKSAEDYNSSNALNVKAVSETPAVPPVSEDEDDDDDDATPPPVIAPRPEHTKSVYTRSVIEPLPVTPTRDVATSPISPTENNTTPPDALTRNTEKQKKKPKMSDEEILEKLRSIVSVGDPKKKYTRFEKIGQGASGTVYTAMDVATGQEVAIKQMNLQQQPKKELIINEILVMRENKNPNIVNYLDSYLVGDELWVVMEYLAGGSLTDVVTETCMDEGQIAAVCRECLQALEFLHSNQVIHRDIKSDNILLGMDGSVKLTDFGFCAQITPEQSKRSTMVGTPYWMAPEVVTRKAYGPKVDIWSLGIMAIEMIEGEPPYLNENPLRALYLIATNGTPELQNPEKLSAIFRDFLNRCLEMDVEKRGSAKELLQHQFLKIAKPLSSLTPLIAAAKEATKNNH
T4 sequence (Q15349 1-388 limits assumed): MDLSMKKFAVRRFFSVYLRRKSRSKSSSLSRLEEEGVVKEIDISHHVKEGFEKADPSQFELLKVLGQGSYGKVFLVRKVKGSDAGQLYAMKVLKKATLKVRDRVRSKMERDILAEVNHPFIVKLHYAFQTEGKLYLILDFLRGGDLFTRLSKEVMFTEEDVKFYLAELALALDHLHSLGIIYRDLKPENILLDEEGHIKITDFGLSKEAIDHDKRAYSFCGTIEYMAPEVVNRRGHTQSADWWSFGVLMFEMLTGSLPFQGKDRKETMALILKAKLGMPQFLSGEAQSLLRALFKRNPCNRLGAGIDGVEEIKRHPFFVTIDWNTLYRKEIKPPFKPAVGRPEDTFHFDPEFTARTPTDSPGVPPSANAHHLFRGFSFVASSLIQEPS
T3 sequence (O75582 1-387 limits assumed): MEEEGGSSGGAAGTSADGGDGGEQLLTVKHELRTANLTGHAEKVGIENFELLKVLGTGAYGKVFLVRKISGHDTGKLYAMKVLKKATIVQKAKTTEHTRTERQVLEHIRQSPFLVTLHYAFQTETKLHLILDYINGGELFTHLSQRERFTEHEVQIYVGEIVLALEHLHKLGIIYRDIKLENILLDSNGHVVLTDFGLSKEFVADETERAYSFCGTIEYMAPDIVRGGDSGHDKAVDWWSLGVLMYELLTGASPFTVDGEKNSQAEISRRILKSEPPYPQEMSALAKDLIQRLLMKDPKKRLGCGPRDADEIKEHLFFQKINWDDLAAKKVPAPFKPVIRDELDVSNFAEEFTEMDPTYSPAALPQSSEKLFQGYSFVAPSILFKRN
T5 sequence (Q9H0K1 whole entry): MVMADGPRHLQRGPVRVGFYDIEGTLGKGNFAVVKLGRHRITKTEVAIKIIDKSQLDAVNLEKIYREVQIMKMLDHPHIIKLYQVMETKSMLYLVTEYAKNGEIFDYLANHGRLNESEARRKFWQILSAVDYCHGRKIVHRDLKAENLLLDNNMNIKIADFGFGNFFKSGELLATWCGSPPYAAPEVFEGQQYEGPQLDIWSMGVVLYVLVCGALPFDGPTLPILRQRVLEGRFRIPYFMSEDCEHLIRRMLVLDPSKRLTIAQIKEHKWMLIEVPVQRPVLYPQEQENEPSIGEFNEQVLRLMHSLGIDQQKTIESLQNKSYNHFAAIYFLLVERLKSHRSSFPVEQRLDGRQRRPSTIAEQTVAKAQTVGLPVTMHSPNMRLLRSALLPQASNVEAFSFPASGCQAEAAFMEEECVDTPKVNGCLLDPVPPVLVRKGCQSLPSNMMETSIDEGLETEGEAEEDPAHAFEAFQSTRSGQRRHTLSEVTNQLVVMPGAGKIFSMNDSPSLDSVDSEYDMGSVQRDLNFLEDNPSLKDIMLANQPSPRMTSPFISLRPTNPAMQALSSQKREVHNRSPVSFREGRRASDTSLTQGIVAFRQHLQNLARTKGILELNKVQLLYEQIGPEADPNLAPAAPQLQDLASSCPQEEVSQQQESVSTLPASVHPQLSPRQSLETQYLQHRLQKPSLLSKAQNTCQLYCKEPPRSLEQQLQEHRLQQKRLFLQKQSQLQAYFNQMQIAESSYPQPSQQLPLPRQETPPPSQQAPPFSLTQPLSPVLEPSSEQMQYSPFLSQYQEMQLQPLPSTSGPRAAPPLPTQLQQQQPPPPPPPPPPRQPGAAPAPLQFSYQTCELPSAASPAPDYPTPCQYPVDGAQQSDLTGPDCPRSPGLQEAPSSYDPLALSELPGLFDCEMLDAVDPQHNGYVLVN
T6 sequence (Q00536 whole entry): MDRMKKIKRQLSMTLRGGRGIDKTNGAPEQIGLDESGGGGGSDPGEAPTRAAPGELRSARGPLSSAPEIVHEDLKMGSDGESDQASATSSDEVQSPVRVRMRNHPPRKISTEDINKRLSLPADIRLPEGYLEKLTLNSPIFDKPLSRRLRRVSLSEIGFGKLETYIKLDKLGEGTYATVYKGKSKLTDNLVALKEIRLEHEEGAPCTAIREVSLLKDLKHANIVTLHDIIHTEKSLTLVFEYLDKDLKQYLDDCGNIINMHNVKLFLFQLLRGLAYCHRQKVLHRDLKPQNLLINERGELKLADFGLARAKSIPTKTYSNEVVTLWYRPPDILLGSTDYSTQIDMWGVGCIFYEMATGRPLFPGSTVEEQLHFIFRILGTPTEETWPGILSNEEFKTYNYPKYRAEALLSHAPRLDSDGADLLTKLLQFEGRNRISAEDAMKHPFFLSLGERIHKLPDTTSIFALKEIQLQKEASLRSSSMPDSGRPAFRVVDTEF

As to `Cc1ccc(O)cc1Nc1ccnc(Nc2cccc(C(N)=O)c2)n1` [Compound 3], the inhibition at 10 µM in [1] is 99.9%; in [2], 0%; in data set [3], 0%; in data set [5] it was 0%; in data set [6], 96.7%; in [7], 0%. The inhibition at 10 µM in [8] is 79.3%; in [9] it was 91.5%. Further, it took 33.1 µM to reach half-maximal cytotoxicity in data set [4] (CC50 at 48 h).
As for `Clc1ccc(Nc2ncc(-c3ccccc3)s2)cc1` [Compound 10], the inhibition at 10 µM in [1] turned out to be 86%; in data set [2], 0%; in data set [3], 0%; in data set [5], 0%; in [6], 0%; in [7], 0%. The inhibition at 10 µM in data set [8] and in data set [9] was 0% throughout.
Regarding `c1ccc(COc2cccc(-c3ccnc4[nH]ccc34)c2)cc1` [Compound 9], the inhibition at 10 µM in [1], in [2], in data set [3], in data set [5], in data set [6] and in data set [7] was 0% each time. Besides, the inhibition at 10 µM in [8] and in data set [9] was 0% each time.
On to `Fc1cccc(COc2ccc(Nc3ncnc4c3CN(CCN3CCOCC3)CC4)cc2Cl)c1` [Compound 6], for which the inhibition at 10 µM in data set [1], in data set [2], in data set [3], in [5], in [6] and in data set [7] was 0% throughout. The inhibition at 10 µM in [8] and in [9] was 0% each time. In addition, the half-maximal cytotoxic concentration (CC50) at 48 h in [4] stood at 46.7 µM.
In the case of `C[C@@H](Oc1cc(-c2cnc3ccccn23)sc1C(N)=O)c1ccccc1Cl` [Compound 8], the inhibition at 10 µM is 0% in data set [1]; 0% in data set [2]; 0% in [3]; 70% in data set [5]; 0% in data set [6]; 0% in data set [7]. The inhibition at 10 µM in data set [8] and in [9] was 0% throughout.
With `CN1CCN(c2ccc(Nc3nccc(-c4cnn5ncccc45)n3)cc2C#N)CC1` [Compound 1], the inhibition at 10 µM in [1] came out at 0%; in data set [2], 0%; in data set [3], 65.7%; in data set [5], 77.6%; in [6], 69.9%; in [7], 100%. The inhibition at 10 µM in data set [8] came to 99.8%; in data set [9], 97.1%. Also, in data set [4], the CC50 at 48 h is above 100 µM.
In the case of `Cc1ccc(O)cc1N(C)c1ccnc(Nc2cccc(S(N)(=O)=O)c2)n1` [Compound 4], the inhibition at 10 µM is 100% in data set [1]; 0% in [2]; 0% in data set [3]; 0% in data set [5]; 95.1% in data set [6]; 96.9% in data set [7]. Further, the results for the inhibition at 10 µM in data set [8] and in [9] were 98.5% and 98.8%, respectively.
Regarding `COc1ccc(Nc2nccc(-c3cnn4ncccc34)n2)cc1` [Compound 2], the inhibition at 10 µM stood at 0% in [1]; 0% in data set [2]; 0% in data set [3]; 0% in data set [5]; 0% in [6]; 100% in [7]. The inhibition at 10 µM in [8] is 0%; in [9], 92.5%. This compound gave a CC50 at 48 h in [4] above 100 µM.
`Nc1ncc2c(-c3ccncc3)c[nH]c2n1` [Compound 11]: the inhibition at 10 µM in data set [1] turned out to be 0%; in [2], 0%; in [3], 0%; in data set [5], 0%; in [6], 0%; in data set [7], 78.2%. Besides, the values for the inhibition at 10 µM in data set [8] and in data set [9] were 0% and 91.7%, respectively. Further, in data set [4], the midpoint of cytotoxicity, the CC50 at 48 h, lay at 50.1 µM.
For the compound `COc1cc(Nc2nccc(-c3sc(N)nc3-c3cccc(NC(=O)c4c(F)cccc4F)c3)n2)cc(OC)c1OC` [Compound 7], the inhibition at 10 µM in data set [1] turned out to be 100%; in [2], 98.9%; in data set [3], 97.4%; in data set [5], 97.2%; in [6], 99.4%; in data set [7] it was 0%. Moreover, the figures for the inhibition at 10 µM in data set [8] and in data set [9] were 99.8% and 100%, respectively. Moreover, in [4], the CC50 at 48 h is 2.6 µM.
